Laboratory results from patent US20190216761A1, “COMPOSITIONS COMPRISING 15-HEPE AND METHODS OF USING THE SAME” (Afimmune Limited, priority 2015, published 2019).
Marks after values point to notes of the source that are not given here.

Assays:
hPPARα = target: T1, hPPARα (Homo sapiens, UniProt Q07869); test: PPAR agonist reporter assay (Gal4 hybrid receptor, luciferase); format: cell-based
T1 construct: expressed in transfected cells
T1 sequence (Q07869 239-466 limits assumed): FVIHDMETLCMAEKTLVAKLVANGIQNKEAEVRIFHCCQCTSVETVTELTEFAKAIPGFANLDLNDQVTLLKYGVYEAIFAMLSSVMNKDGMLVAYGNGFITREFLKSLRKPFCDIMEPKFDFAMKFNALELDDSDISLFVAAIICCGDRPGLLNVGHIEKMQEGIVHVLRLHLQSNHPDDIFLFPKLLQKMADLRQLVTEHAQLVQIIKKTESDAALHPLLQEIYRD
Procedure: (§1) This study utilized proprietary reporter cells expressing a hybrid receptor comprising the N-terminal Gal4 DNA binding domain fused to the ligand binding domain of the specific human nuclear receptor (hPPARα, hPPARδ, and hPPARγ) and rat nuclear receptor (rPPARα, rPPARδ, and rPPARγ). The reporter vectors used in this Example comprise the firefly luciferase gene functionally linked to the Gal4 upstream activation sequence.
Nuclear Receptor assay was performed by dispensing 100 μL of a suspension of Reporter Cells in Cell Recovery Medium (CRM) containing 10% charcoal stripped FBS into each well of a white 96-well plate. Test compounds were diluted using compound screening medium (CSM) containing 10% charcoal stripped FBS to generate “2×-concentration” treatment media. Immediately after this dilution step, 100 μL of each diluted 2×-concentration treatment medium was dispensed (in triplicate) into the Reporter Cell-containing assay wells.
After incubation at 37° C. for 24 hours, the treatment media was discarded. 100 μL of Luciferase Detection Reagent substrate was added to each well and RLUs were quantified from each well to determine nuclear receptor activities.

rPPARδ = test: PPAR antagonist reporter assay (reference agonist at EC80); format: cell-based, rat; details: for inhibition of rat PPARs (in words), rPPARδ: at higher test concentrations
Procedure: as §1
Nuclear Receptor assay was performed by suspending Reporter Cells in CRM containing 10% charcoal stripped FBS. 2×-EC80 concentrations of the appropriate reference agonist were then added to the Reporter Cell suspension, and 100 μL of the mixture dispensed into wells of a white 96-well plate. Test compounds were diluted using compound screening medium (CSM) containing 10% charcoal stripped FBS to generate “2×-concentration” treatment media. Immediately after this dilution step, 100 μL of each diluted 2×-concentration treatment medium was dispensed (in triplicate) into the Reporter Cell-containing assay wells.
After incubation at 37° C. for 24 hours, the treatment media was discarded. Each well was rinsed once with LCM Buffer; LCM substrate was then added. After incubation for 30 minutes at 37° C., fluorescence was measured to determine the relative number of live cells per assay well. LCM substrate was then discarded and 100 μL of Luciferase Detection Reagent substrate was added to each well. RLUs were quantified from each well to determine nuclear receptor activities.

| agonism activity against human PPARα (in words) (hPPARα; at low to higher doses in the dose response curve) | SMILES | Fold-Activation (vs. 0.10% DMSO) hPPAR-α (hPPARα; 137 nM) | Fold-Activation (vs. 0.10% DMSO) hPPAR-α (hPPARα; 412 nM) | Fold-Activation (vs. 0.10% DMSO) hPPAR-α (hPPARα; 1,235 nM) | Fold-Activation (vs. 0.10% DMSO) hPPAR-α (hPPARα; 3,704 nM) | Fold-Activation (vs. 0.10% DMSO) hPPAR-α (hPPARα; 11,111 nM) | Fold-Activation (vs. 0.10% DMSO) hPPAR-α (hPPARα; 33,333 nM) | Fold-Activation (vs. 0.10% DMSO) hPPAR-α (hPPARα; 100,000 nM) | Fold-Activation (vs. 0.10% DMSO) hPPAR-α (hPPARα; 300,000 nM) | % Inhibition of agonist-stimulated receptor activity vs. 0.10% DMSO, rPPAR-δ (rPPARδ; 137 nM) | % Inhibition of agonist-stimulated receptor activity vs. 0.10% DMSO, rPPAR-δ (rPPARδ; 412 nM) | % Inhibition of agonist-stimulated receptor activity vs. 0.10% DMSO, rPPAR-δ (rPPARδ; 1,235 nM) | % Inhibition of agonist-stimulated receptor activity vs. 0.10% DMSO, rPPAR-δ (rPPARδ; 3,704 nM) | % Inhibition of agonist-stimulated receptor activity vs. 0.10% DMSO, rPPAR-δ (rPPARδ; 11,111 nM) | % Inhibition of agonist-stimulated receptor activity vs. 0.10% DMSO, rPPAR-δ (rPPARδ; 33,333 nM) | % Inhibition of agonist-stimulated receptor activity vs. 0.10% DMSO, rPPAR-δ (rPPARδ; 100,000 nM) | % Inhibition of agonist-stimulated receptor activity vs. 0.10% DMSO, rPPAR-δ (rPPARδ; 300,000 nM) | inhibition of rat PPARs (in words), rPPARδ (rPPARδ) |
| --- | --- | --- | --- | --- | --- | --- | --- | --- | --- | --- | --- | --- | --- | --- | --- | --- | --- | --- |
| – | CC/C=C\C/C=C\C/C=C\C/C=C\C/C=C\CCCC(=O)OCC [EPA-EE, EPA ethyl ester, reference compound] | 0.88 fold | 1.0 fold | 0.90 fold | 0.89 fold | 0.86 fold | 0.95 fold | 1.1 fold | 2.0* fold | 26% | 4.0% | 5.7% | 8.1% | 3.7% | 7.2% | 10% | 36% | does not exhibit similar inhibitory activity |
| moderate agonism activity | CC/C=C\C[C@H](O)/C=C/C=C\C/C=C\C/C=C\CCCC(=O)OCC [15-HEPE-EE, 15-HEPE ethyl ester] | 0.90 fold | 1.1 fold | 1.1 fold | 2.1* fold | 4.2* fold | 6.8* fold | 5.0* fold | 0.98 fold | 25% | 1.5% | −1.8% | 6.8% | 1.2% | 26% | 58% | 100% | apparent inhibition |
